Experimental data: ChEMBL document CHEMBL1201862, “PubChem BioAssay data set” (2004)
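Protocol summary: plate cells (96-well), add compound at 5 concentrations, incubate 48 h, interpolate endpoints linearly. At the GI50, growth is halved.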 Calls of active or inactive are those of the source. Cut-off read from the data, not from the text of the source: active = GI50 up to about 1.1 µM and inactive = higher.

How the values were obtained:
Test in all cases: NCI tumour cell line growth inhibition, 48 h
HL-60 = tested on: HL-60
IGROV-1 = tested on: IGROV-1
CAKI-1 = tested on: CAKI-1
HT-29 = tested on: HT-29
U-251 = tested on: U-251
HOP-62 = tested on: HOP-62
Malme-3M = tested on: Malme-3M
M14 = tested on: M14
KM12 = tested on: KM12
OVCAR-5 = tested on: OVCAR-5
COLO 205 = tested on: COLO 205
RPMI-8226 = tested on: RPMI-8226
LOX IMVI = tested on: LOX IMVI
786-0 = tested on: 786-0
A498 = tested on: A498
SK-MEL-5 = tested on: SK-MEL-5
HCT-116 = tested on: HCT-116
SR = tested on: SR

Measured: GI50

CCCCN(CCCC)C(=O)C(=O)C(C)C(=O)CC (stereo not drawn)
inactive: HL-60 > 100 µM | IGROV-1 > 100 µM | CAKI-1 > 100 µM | HT-29 > 100 µM | U-251 > 100 µM | HOP-62 > 100 µM | Malme-3M > 100 µM | M14 > 100 µM | KM12 > 100 µM | OVCAR-5 > 100 µM | COLO 205 > 100 µM | RPMI-8226 > 100 µM | LOX IMVI > 100 µM | 786-0 > 100 µM

ClC(Cl)=C(Cl)C1(Cl)CC1COCc1ccccc1 (stereo not drawn)
inactive: A498 52.4 µM | HL-60 15.6 µM | IGROV-1 47.6 µM | CAKI-1 65.8 µM | HT-29 24.8 µM | HOP-62 25.9 µM | Malme-3M 18.4 µM | M14 32.4 µM | KM12 35 µM | OVCAR-5 32.6 µM | COLO 205 25.2 µM | RPMI-8226 15.8 µM | LOX IMVI 23.1 µM | 786-0 44.3 µM | SK-MEL-5 15.8 µM

C=CCCCN1CCCCC1=S
inactive: HCT-116 > 100 µM | SR > 100 µM | HL-60 > 100 µM | IGROV-1 > 100 µM | HT-29 > 100 µM | U-251 > 100 µM | HOP-62 > 100 µM | Malme-3M > 100 µM | M14 > 100 µM | KM12 > 100 µM | OVCAR-5 > 100 µM | COLO 205 > 100 µM | RPMI-8226 > 100 µM | LOX IMVI > 100 µM | 786-0 > 100 µM | SK-MEL-5 > 100 µM

C/C(CC(=O)Nc1ccc(C)cc1C)=N/N=C(N)N
inactive: A498 > 100 µM | HCT-116 > 100 µM | HL-60 > 100 µM | IGROV-1 > 100 µM | HT-29 > 100 µM | U-251 > 100 µM | HOP-62 > 100 µM | Malme-3M > 100 µM | M14 > 100 µM | KM12 > 100 µM | OVCAR-5 > 100 µM | COLO 205 > 100 µM | RPMI-8226 > 100 µM | LOX IMVI > 100 µM | 786-0 > 100 µM | SK-MEL-5 > 100 µM

NC(=S)N1N=C2CCCCCC[C@@H]2[C@H]1c1ccccc1
inactive: A498 75 µM | HCT-116 43.1 µM | HL-60 19.2 µM | IGROV-1 63.2 µM | CAKI-1 > 100 µM | HT-29 29.2 µM | U-251 46 µM | HOP-62 > 100 µM | Malme-3M 59.3 µM | M14 74.5 µM | KM12 35.2 µM | OVCAR-5 > 100 µM | COLO 205 46.7 µM | RPMI-8226 15.1 µM | LOX IMVI 32.8 µM | 786-0 67 µM | SK-MEL-5 22.4 µM

Cc1cc(=O)n(-c2ccccc2C)c(C)n1
inactive: A498 > 100 µM | HCT-116 > 100 µM | HL-60 > 100 µM | IGROV-1 > 100 µM | CAKI-1 > 100 µM | HT-29 > 100 µM | U-251 > 100 µM | HOP-62 > 100 µM | Malme-3M > 100 µM | M14 > 100 µM | KM12 > 100 µM | OVCAR-5 > 100 µM | COLO 205 > 100 µM | LOX IMVI > 100 µM | 786-0 > 100 µM | SK-MEL-5 > 100 µM

O=C(Nc1cc(Cl)ccc1Cl)c1cc2cccc(Cl)c2oc1=O
inactive: HCT-116 > 100 µM | HL-60 > 100 µM | IGROV-1 > 100 µM | HT-29 > 100 µM | U-251 > 100 µM | HOP-62 > 100 µM | Malme-3M > 100 µM | M14 > 100 µM | KM12 > 100 µM | COLO 205 > 100 µM | RPMI-8226 > 100 µM | LOX IMVI > 100 µM | 786-0 > 100 µM | SK-MEL-5 > 100 µM

COc1cc(/C=N/N=C(\N)NO)ccc1O
inactive: A498 44.9 µM | HCT-116 69.8 µM | IGROV-1 > 100 µM | CAKI-1 28.6 µM | HT-29 67.8 µM | U-251 91.2 µM | Malme-3M 75.9 µM | KM12 77.1 µM | OVCAR-5 18.1 µM | COLO 205 > 100 µM | RPMI-8226 > 100 µM | LOX IMVI 30.5 µM | 786-0 > 10 µM | SK-MEL-5 53 µM

N#CC1CCCCCCCCCCC(=O)N(CCCl)C1=O (stereo not drawn)
inactive: A498 > 100 µM | HL-60 > 100 µM | IGROV-1 > 100 µM | CAKI-1 > 100 µM | HT-29 > 100 µM | U-251 > 100 µM | HOP-62 > 100 µM | Malme-3M > 100 µM | M14 > 100 µM | KM12 > 100 µM | OVCAR-5 > 100 µM | COLO 205 > 100 µM | RPMI-8226 > 100 µM | LOX IMVI > 100 µM | 786-0 > 100 µM | SK-MEL-5 > 100 µM

CC(=O)NC1=C(N)C(=O)c2ccccc2C1=O
inactive: A498 > 100 µM | HCT-116 17.7 µM | HL-60 27.1 µM | IGROV-1 > 100 µM | CAKI-1 > 100 µM | HT-29 65.8 µM | U-251 56.5 µM | HOP-62 > 100 µM | Malme-3M 21.3 µM | M14 43.6 µM | KM12 > 100 µM | OVCAR-5 > 100 µM | COLO 205 30.5 µM | RPMI-8226 60 µM | LOX IMVI 15.3 µM | 786-0 37.7 µM | SK-MEL-5 30.6 µM

CN(C)CCC(O)(c1ccccc1)C(O)(CCN(C)C)c1ccccc1 (stereo not drawn)
inactive: A498 > 100 µM | IGROV-1 > 100 µM | CAKI-1 > 100 µM | HT-29 94 µM | U-251 > 100 µM | HOP-62 > 100 µM | Malme-3M 17.7 µM | M14 17.4 µM | KM12 > 100 µM | OVCAR-5 > 100 µM | COLO 205 72.9 µM | RPMI-8226 > 100 µM | 786-0 > 100 µM | SK-MEL-5 38.5 µM

CCc1cccc(C)c1NC(C)=O
inactive: A498 > 100 µM | HCT-116 > 100 µM | HL-60 > 100 µM | IGROV-1 > 100 µM | CAKI-1 > 100 µM | HT-29 > 100 µM | U-251 > 100 µM | HOP-62 > 100 µM | Malme-3M > 100 µM | M14 > 100 µM | KM12 > 100 µM | OVCAR-5 > 100 µM | RPMI-8226 > 100 µM | 786-0 > 100 µM | SK-MEL-5 > 100 µM

Cc1cc(Cl)ccc1NC(=O)C1C(=O)N(c2ccc(Cl)cc2C)C(=O)/C1=N\NC(N)=S (stereo not drawn)
inactive: A498 23.6 µM | HCT-116 21.9 µM | HL-60 20.1 µM | HT-29 18.7 µM | U-251 19.6 µM | HOP-62 21.3 µM | Malme-3M 18.7 µM | M14 28.2 µM | KM12 32.9 µM | OVCAR-5 24.3 µM | COLO 205 32.1 µM | RPMI-8226 44.8 µM | 786-0 32.6 µM | SK-MEL-5 32.7 µM
